Test results: patent publication US20100260830A1, “Liposomal Formulations of Tocopheryl Amides” (priority 2009, published 2010)
Like-named read-outs stand apart in the source and are kept apart here.

Columns and labels:
[1] = test system: mouse melanoma B16F10 cells; assay: Cytotoxic effect on melanoma cells in vitro
Protocol: (§1) IC50 values were calculated from MTT activity (Bank, U et al, 1991, Measurement of cellular activity by means of the MTT-test. Allerg Immunol 37:119-123).

[2] = test system: granulocyte/macrophage colony forming cells (GM-CFC); assay: GM-CFC colony formation in vitro; format: cell-based, Balb/c mouse; conditions: Balb/c bone marrow GM progenitors
Protocol: FIGS. 8A and 8B are comparative views illustrating the paradoxical effect of the liposomal formulation on non-specific toxicity, here to granulocyte/macrophage colony forming cells (GM-CFC). […] In the left panel, GM progenitors were isolated from Balb/c mouse bone morrow and treated with αTOS (left) or αTAM (right, black bars) at the concentrations shown, the number of colonies was counted and expressed per individual well. In the right panel, Balb/c mice were injected i.p. with the vehicle (40), empty liposomes (41) liposomal αTOS at 100 mg/kg (42), αTAM at 10 mg/kg (43), or αTAM at 25 mg/kg (44), and GM-CFC colonies in femoral bone marrow counted 48 h later (* denotes statistically significant differences with pb0.05 in comparison to control). […] This surprising result is paradoxical, and points to the importance of the formulation vehicle as a technological advance in achieving clinical trials of these compounds.

[3] = test system: human breast cancer cell line MCF-7; assay: MTT cytotoxicity IC50; format: cell-based; conditions: calculated from MTT activity
Protocol: as §1

[4] = test system: Meso-2 cells; assay: IC50 against Meso-2 cells (FIG. 14A); format: cell-based; conditions: values only in FIG. 14A
From the text: In FIG. 14A, esters and amides of the chromanol and N-chroman genera are compared. […] There is a correlation between increased potency and CLogP, where amide lipophilicity is consistently greater than that of the corresponding esters. Other factors of molecular structure also play a role.

[5] = test system: Jurkat T cells; assay: Mitochondrial membrane potential ΔΨ, flow cytometry with JC-1 probe; format: cell-based
From the text: FIG. 3 illustrates the effect of selected chromans on mitochondrial membrane potential ΔΨ in vitro. […] Deviations in ΔΨ were estimated by flow cytometry followed by cell staining with the polychromatic JC-1 probe.

[6] = General toxicity in mice by the Berlin Test; format: in vivo; conditions: 5 mg/kg in DMSO
From the text: The general toxicity of liposomal preparations of αTAM was studied further in mice by the Berlin Test. Untreated mice and mice treated with empty liposomes were used as controls. […] Symptoms including spasms and heavy breathing pointed to neurotoxicity, embolie or anaphylactic reaction. Therefore, we have discontinued experiments that involved the use of non-liposomal formulations of αTAM.

[7] = Injection of αTAM dissolved in DMSO or ethanol (Prior Art I); format: in vivo, mice
From the text: In earlier work to develop a formulation of αTAM for preclinical study, the compound was first dissolved in DMSO or ethanol as has been characteristic of studies of this kind (Weber et al, 2002, Vitamin E succinate is a potent novel antineoplastic agent with high selectivity and cooperativity with tumor necrosis factor-related apoptosis-inducing ligand (Apo2 ligand) in vivo, Clin Cancer Res 8:863-69; Yu et al, 1999, Induction of apoptosis in human breast cancer cells by tocopherols and tocotrienols, Nutr Cancer 33:26-32).

[8] = test system: non-malignant cells (e.g. lymphocytes and bone marrow progenitors); assay: In vitro models of non-malignant cells; format: cell-based

## Cc1c(C)c2c(c(C)c1O)CC[C@@](C)(CCC[C@H](C)CCC[C@H](C)CCCC(C)C)O2 [αTOH]
[1]
  cytotoxic potential (order): No toxicity was observed

## tocopheryl succinate [αTOS]
[1]; B16F10 in vitro
  cytotoxic potential (order): αTAM>αTOM>αTOS>>αTOH

## Cc1c(C)c2c(c(C)c1NC(=O)/C=C\C(=O)O)CCC(C)(CCCC(C)CCCC(C)CCCC(C)C)O2 (stereo not drawn) [αTAM, α-tocopheryl maleamide]
[1]
  cytotoxic potential (order): αTAM>αTOM>αTOS>>αTOH
[2]
  toxicity to GM progenitors in vitro: the compound is toxic in vitro
[3]
  IC50: 13.3 µM
[4]
  cytolytic potency versus the corresponding tocopheryl succinates: markedly increased cytolytic potency
[5]
  dissipating mitochondrial inner transmembrane potential: potent in dissipating mitochondrial inner transmembrane potential
Given in liposomal formulation
  tolerated dose: 500 μg per 20 g mouse
mouse, in vivo
  dose feasible for human use: 1.75 g
  safe dose: 25 mg/kg
[6]
  outcome of free compound administered in DMSO: caused rapid death of the animals
[7]; Balb/c, C57B1 or FVB/N c-neu mice
  outcome of one or two injections in DMSO: caused death of the animals
[7]; non-liposomal solution
  toxicity of solution in DMSO (or ethanol): extremely toxic
[8]
  cytotoxicity to non-malignant cells: cytotoxic to non-malignant cells

## Cc1c(C)c2c(c(C)c1NC(=O)CCC(=O)O)CCC(C)(CCCC(C)CCCC(C)CCCC(C)C)O2 (stereo not drawn) [αTAS, α-tocopheryl succinamide]
[5]
  dissipating mitochondrial inner transmembrane potential: potent in dissipating mitochondrial inner transmembrane potential
